In patent US10723705B2, “Heterocyclic compounds and uses thereof” (Incyte Corporation, priority 2015, dated 2020) one finds IC50 data, which are given here for 37 compounds.

For this test, the target named is Human recombinant Histone Deacetylase 8 (HDAC8) (Homo sapiens (Human), UniProt Q9BY41). The test is described as follows: HDAC8 Enzymatic Assay (HDAC-Glo I/II luminescence). The class given is biochemical. As to conditions: class symbols, Table 14; read-out: HDAC8 IC50. As for the experimental part: HDAC-Glo™ I/II Assay Kit was purchased from Promega Corporation (Madison, Wis.), including the following components: HDAC-Glo I/II Buffer (25 mM Tris buffer, pH 8.0, supplemented with 137 mM: NaCl, 2.7 mM KCl, 1% v/v Triton X-100 and 1 mM: MgCl2), luminogenic substrates Boc-GAK(Ac)-aminoluciferin (HDAC-Glo I/II substrate), proprietary developer reagent (containing trypsin). Human recombinant Histone Deacetylase 8 (HDAC8) was purchased from Enzo Life Sciences (Plymouth Meeting, Pa.).
Chain of Human recombinant Histone Deacetylase 8 (HDAC8) (Q9BY41 whole entry): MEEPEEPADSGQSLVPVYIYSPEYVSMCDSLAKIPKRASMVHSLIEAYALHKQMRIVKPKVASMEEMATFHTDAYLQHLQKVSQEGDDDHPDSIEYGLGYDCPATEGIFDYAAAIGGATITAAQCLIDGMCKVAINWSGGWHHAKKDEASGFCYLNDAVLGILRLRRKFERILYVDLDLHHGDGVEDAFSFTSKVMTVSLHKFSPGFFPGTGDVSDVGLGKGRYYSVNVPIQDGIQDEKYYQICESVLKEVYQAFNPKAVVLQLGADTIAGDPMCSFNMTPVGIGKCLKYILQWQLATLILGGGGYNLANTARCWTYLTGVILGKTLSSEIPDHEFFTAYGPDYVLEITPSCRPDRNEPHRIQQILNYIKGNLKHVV
The HDAC8 reaction was performed at room temperature in white 384-well polystyrene, flat-bottom microtiter plate (Greiner Bio-one, Monroe, N.C.) in a final volume of 20 μL. Test compounds were first diluted serially in DMSO and 100 nL were transferred to the plate wells by Echo 550 (Labcyte, Sunnyvale, Calif.) before the addition of other reaction components. The final concentration of DMSO in the assay was 0.5%. The HDAC-Glo I/II assay reagent was prepared by rehydration of lyophilized HDAC-Glo I/II substrate in 10 mL. HDAC-Glo I/II assay buffer followed with the addition of 10 μL of developer reagent. 10 uL of 3 nM HDAC8 in the HDAC-Glo I/II assay buffer were first dispensed into the microliter plate containing the compounds and incubated at room temperature for 30 min. The reactions were initiated with the addition of 10 uL HDAC-Glo I/II assay reagent with Multidrop (Thermo, Waltham, Mass.). The final concentration of HDAC8 and HDAC-Glo I/II substrate in the reaction were 1.5 nM and 50 μM, respectively. The assay plate was mixed for 1 min by orbital shaking (500 rpm) and centrifuged for 1 min at 1500 rpm. After 15 min at room temperature, luminescence signals were measured on TopCount (Perkin Elmer). Wells with no compound served as the positive controls and wells containing no HDAC8 were used as negative controls. IC50 determination was performed by fitting the curve of percentage control activity versus the log of the compound concentration using the GraphPad Prism 6.0 software.
Turning to `O=C(NO)C(Cc1ccccc1)n1cc2cc(-c3ccccc3)ccc2n1` (stereo not shown) [Compound I-0036, N-hydroxy-3-phenyl-2-(5-phenyl-2H-indazol-2-yl)propanamide], the IC50 is over 0.5 µM.
Turning to `O=C(NO)C(Cc1ccccc1)n1cc2ccc(F)cc2n1` (stereo not shown) [Compound I-0037, 2-(6-fluoro-2H-indazol-2-yl)-N-hydroxy-3-phenylpropanamide], the IC50 was over 0.5 µM.
In the case of `O=C(NO)C(Cc1ccccc1)n1cc2ccc(C(F)(F)F)cc2n1` (stereo not shown) [Compound I-0038, N-hydroxy-3-phenyl-2-(6-(trifluoromethyl)-2H-indazol-2-yl)propanamide] it was over 0.5 µM; in that of `Cc1cc2cn(C(Cc3ccccc3)C(=O)NO)nc2cc1Br` (stereo not shown) [Compound I-0039, 2-(6-bromo-5-methyl-2H-indazol-2-yl)-N-hydroxy-3-phenylpropanamide], over 0.5 µM.
`Cc1ccc2cn(C(Cc3ccccc3)C(=O)NO)nc2c1` (stereo not shown) [Compound I-0040, N-hydroxy-2-(6-methyl-2H-indazol-2-yl)-3-phenylpropanamide]: the IC50 was over 0.5 µM.
For the compound `O=C(NO)C(Cc1ccccc1)n1cnc2ccccc21` (stereo not shown) [Compound I-0041, 2-(1H-benzo[d]imidazol-1-yl)-N-hydroxy-3-phenylpropanamide], the 50% inhibitory concentration (IC50) was in the range of 0.2 to 0.5 µM.
In the case of `O=C(NO)C(Cc1ccccc1)n1ncc2cnccc21` (stereo not shown) [Compound I-0042, N-hydroxy-3-phenyl-2-(1H-pyrazolo[4,3-c]pyridin-1-yl)propanamide] it was 0.2 to 0.5 µM; in that of `O=C(NO)C(Cc1ccccc1)n1cc2cnccc2n1` (stereo not shown) [Compound I-0043, N-hydroxy-3-phenyl-2-(2H-pyrazolo[4,3-c]pyridin-2-yl)propanamide], over 0.5 µM.
The same measure for `Cn1cc(-c2ccc3nn(C(Cc4ccccc4)C(=O)NO)c(C#CC4CC4)c3c2)cn1` (stereo not shown) [Compound I-0044, 2-(3-(cyclopropylethynyl)-5-(1-methyl-1H-pyrazol-4-yl)-2H-indazol-2-yl)-N-hydroxy-3-phenylpropanamide]: 0.05 to 0.2 µM; for `O=C(NO)C(Cc1ccccc1)n1nc2ccc(-c3cccnc3)cc2c1C#CC1CC1` (stereo not shown) [Compound I-0045, 2-(3-(cyclopropylethynyl)-5-(pyridin-3-yl)-2H-indazol-2-yl)-N-hydroxy-3-phenylpropanamide]: 0.05 to 0.2 µM.
In the case of `COc1ccc(-c2ccc3nn(C(Cc4ccccc4)C(=O)NO)c(C#CC4CC4)c3c2)cn1` (stereo not shown) [Compound I-0046, 2-(3-(cyclopropylethynyl)-5-(6-methoxypyridin-3-yl)-2H-indazol-2-yl)-N-hydroxy-3-phenylpropanamide] it was 0.2 to 0.5 µM; in that of `Cn1nccc1-c1ccc2cn(C(Cc3ccccc3)C(=O)NO)nc2c1` (stereo not shown) [Compound I-0047, N-hydroxy-2-(6-(1-methyl-1H-pyrazol-5-yl)-2H-indazol-2-yl)-3-phenylpropanamide], 0.2 to 0.5 µM.
`CN1CCC(c2ccc3cn(C(Cc4ccccc4)C(=O)NO)nc3c2)CC1` (stereo not shown) [Compound I-0048, N-hydroxy-2-(6-(1-methylpiperidin-4-yl)-2H-indazol-2-yl)-3-phenylpropanamide]: the concentration for half-maximal inhibition (IC50) is over 0.5 µM.
In the case of `Cc1ccc2nn(C(Cc3ccccc3)C(=O)NO)cc2c1` (stereo not shown) [Compound I-0049, N-hydroxy-2-(5-methyl-2H-indazol-2-yl)-3-phenylpropanamide] it was over 0.5 µM; in that of `O=C(NO)C(Cc1ccccc1)n1cc2cc(-c3ccncc3)ccc2n1` (stereo not shown) [Compound I-0050, N-hydroxy-3-phenyl-2-(5-(pyridin-4-yl)-2H-indazol-2-yl)propanamide], 0.2 to 0.5 µM.
As to `O=C(NO)C(Cc1ccccc1)n1cc2cc(-c3cncnc3)ccc2n1` (stereo not shown) [Compound I-0051, N-hydroxy-3-phenyl-2-(5-(pyrimidin-5-yl)-2H-indazol-2-yl)propanamide], the half-inhibitory concentration (IC50) lay within 0.2 to 0.5 µM.
In the case of `O=C(NO)C(Cc1ccccc1)n1cc2ccc(N3CCCCC3)cc2n1` (stereo not shown) [Compound I-0052, N-hydroxy-3-phenyl-2-(6-(piperidin-1-yl)-2H-indazol-2-yl)propanamide] it was over 0.5 µM; in that of `O=C(NO)C(Cc1ccccc1)n1cc2cncc(C#CC3CC3)c2n1` (stereo not shown) [Compound I-0053, 2-(7-(cyclopropylethynyl)-2H-pyrazolo[4,3-c]pyridin-2-yl)-N-hydroxy-3-phenylpropanamide], 0.2 to 0.5 µM.
For `O=C(NO)C(Cc1ccccc1)n1cc2cncc(I)c2n1` (stereo not shown) [Compound I-0054, N-hydroxy-2-(7-iodo-2H-pyrazolo[4,3-c]pyridin-2-yl)-3-phenylpropanamide], the 50% inhibitory concentration (IC50) was over 0.5 µM.
For `O=C(NO)C(Cc1ccccc1)n1ncc2c(Cl)nccc21` (stereo not shown) [Compound I-0055, 2-(4-chloro-1H-pyrazolo[4,3-c]pyridin-1-yl)-N-hydroxy-3-phenylpropanamide], the IC50 lay in the range of 0.2 to 0.5 µM.
The same measure for `O=C(NO)C(Cc1ccccc1)n1cc2c(Cl)nccc2n1` (stereo not shown) [Compound I-0056, 2-(4-chloro-2H-pyrazolo[4,3-c]pyridin-2-yl)-N-hydroxy-3-phenylpropanamide]: over 0.5 µM; for `CN1CC=C(c2cccc3nn(C(Cc4ccccc4)C(=O)NO)cc23)CC1` (stereo not shown) [Compound I-0057, N-hydroxy-2-(4-(1-methyl-1,2,3,6-tetrahydropyridin-4-yl)-2H-indazol-2-yl)-3-phenylpropanamide]: over 0.5 µM.
The same measure for `O=C(NO)C(Cc1ccccc1)n1cc2c(-c3ccncc3)cccc2n1` (stereo not shown) [Compound I-0058, N-hydroxy-3-phenyl-2-(4-(pyridin-4-yl)-2H-indazol-2-yl)propanamide]: 0.2 to 0.5 µM; for `O=C(NO)C(Cc1ccccc1)n1cc2c(N3CCOCC3)cccc2n1` (stereo not shown) [Compound I-0059, N-hydroxy-2-(4-morpholino-2H-indazol-2-yl)-3-phenylpropanamide]: over 0.5 µM; for `O=C(NO)C(Cc1ccccc1)n1cc2c(-c3ccccc3)cccc2n1` (stereo not shown) [Compound I-0060, N-hydroxy-3-phenyl-2-(4-phenyl-2H-indazol-2-yl)propanamide]: over 0.5 µM.
In the case of `Cn1nccc1-c1cccc2nn(C(Cc3ccccc3)C(=O)NO)cc12` (stereo not shown) [Compound I-0061, N-hydroxy-2-(4-(1-methyl-1H-pyrazol-5-yl)-2H-indazol-2-yl)-3-phenylpropanamide] it was 0.2 to 0.5 µM.
In the case of `O=C(NO)C(Cc1ccccc1)n1cc2c(C3CC3)cccc2n1` (stereo not shown) [Compound I-0062, 2-(4-cyclopropyl-2H-indazol-2-yl)-N-hydroxy-3-phenylpropanamide], the half-maximal inhibitory concentration (IC50) was over 0.5 µM.
In the case of `O=C(NO)C(Cc1ccccc1)n1cc2c(-c3cncnc3)cccc2n1` (stereo not shown) [Compound I-0063, N-hydroxy-3-phenyl-2-(4-(pyrimidin-5-yl)-2H-indazol-2-yl)propanamide] it was 0.2 to 0.5 µM; in that of `Cc1cccc2nn(C(Cc3ccccc3)C(=O)NO)cc12` (stereo not shown) [Compound I-0064, N-hydroxy-2-(4-methyl-2H-indazol-2-yl)-3-phenylpropanamide], over 0.5 µM; in that of `CN1CCC(c2cccc3nn(C(Cc4ccccc4)C(=O)NO)cc23)CC1` (stereo not shown) [Compound I-0065, N-hydroxy-2-(4-(1-methylpiperidin-4-yl)-2H-indazol-2-yl)-3-phenylpropanamide], over 0.5 µM.
The same measure for `O=C(NO)C(Cc1ccccc1)n1cc2cccc(-c3ccccc3)c2n1` (stereo not shown) [Compound I-0066, N-hydroxy-3-phenyl-2-(7-phenyl-2H-indazol-2-yl)propanamide]: over 0.5 µM; for `Cn1nccc1-c1cccc2cn(C(Cc3ccccc3)C(=O)NO)nc12` (stereo not shown) [Compound I-0067, N-hydroxy-2-(7-(1-methyl-1H-pyrazol-5-yl)-2H-indazol-2-yl)-3-phenylpropanamide]: 0.05 to 0.2 µM.
As to `O=C(NO)C(Cc1ccccc1)n1cc2cccc(Br)c2n1` (stereo not shown) [Compound I-0068, 2-(7-bromo-2H-indazol-2-yl)-N-hydroxy-3-phenylpropanamide], the concentration for half-maximal inhibition (IC50) lay in the range of 0.2 to 0.5 µM.
Take `Cn1nccc1-c1nccc2c1cnn2C(Cc1ccccc1)C(=O)NO` (stereo not shown) [Compound I-0069, N-hydroxy-2-(4-(1-methyl-1H-pyrazol-5-yl)-1H-pyrazolo[4,3-c]pyridin-1-yl)-3-phenylpropanamide]: the IC50 fell in the range of 0.05 to 0.2 µM.
In the case of `O=C(NO)C(Cc1ccccc1)n1ncc2c(-c3ccncc3)nccc21` (stereo not shown) [Compound I-0070, N-hydroxy-3-phenyl-2-(4-(pyridin-4-yl)-1H-pyrazolo[4,3-c]pyridin-1-yl)propanamide] it was 0.05 to 0.2 µM.
The same measure for `O=C(NO)C(Cc1ccccc1)n1ncc2c(-c3cncnc3)nccc21` (stereo not shown) [Compound I-0071, N-hydroxy-3-phenyl-2-(4-(pyrimidin-5-yl)-1H-pyrazolo[4,3-c]pyridin-1-yl)propanamide]: 0.05 to 0.2 µM; for `Cn1nccc1-c1ccc2c(cnn2C(Cc2ccccc2)C(=O)NO)n1` (stereo not shown) [Compound I-0072, N-hydroxy-2-(5-(1-methyl-1H-pyrazol-5-yl)-1H-pyrazolo[4,3-b]pyridin-1-yl)-3-phenylpropanamide]: 0.2 to 0.5 µM.
